Like-named read-outs stand apart in the source and are kept apart here.
Experiments:
Format in all cases: biochemical
[1] = molecular target: T1, CAD de peuplier (Populus deltoides, UniProt P31657); assay: in vitro inhibition of isolated poplar CAD
T1 construct: la CAD de peuplier isolée selon la méthode deSARNI et al; from tissue
T1 sequence (P31657 1-357): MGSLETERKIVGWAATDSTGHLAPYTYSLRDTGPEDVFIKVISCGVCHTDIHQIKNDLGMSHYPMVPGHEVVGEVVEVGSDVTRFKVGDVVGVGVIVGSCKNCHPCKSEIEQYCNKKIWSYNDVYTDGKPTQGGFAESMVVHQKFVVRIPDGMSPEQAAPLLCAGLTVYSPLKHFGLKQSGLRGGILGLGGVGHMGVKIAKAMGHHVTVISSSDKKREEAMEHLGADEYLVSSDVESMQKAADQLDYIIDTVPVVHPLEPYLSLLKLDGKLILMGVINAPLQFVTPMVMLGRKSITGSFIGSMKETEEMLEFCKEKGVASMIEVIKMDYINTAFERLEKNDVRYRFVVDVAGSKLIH
Excerpt: On rapporte dans le tableau suivant les résultats obtenus concernant l'effet mesuré in vitro d'inhibiteurs selon l'invention à différentes concentrations vis-à-vis de la CAD de peuplier isolée selon la méthode deSARNI et al, dans, EUROP JOURNAL OF BIOCHEMISTRY,139, P.259-265, 1984.
Les mesures des trois derniers résultats ont été réalisées dans le sens physiologique c'est-à-dire en suivant la réduction de l'aldéhyde coniférylique(oxydation du […] mesurée à 340 nm).
Cette inhibition mesurée in vitro dans le sens physiologique (pH 6,5) est 10 à 15 fois plus importante que dans le sens inverse, c'es-t-à-dire alcool→ aldéhyde (pH 8,8).

[2] = test system: anhydrase carbonique (CA); assay: action on plant zinc enzyme carbonic anhydrase
Excerpt: (§1) L'étude de leur action sur différentes enzymes a également été réalisée.
(§2) On a étudié ainsi l'action d'inhibiteurs selon l'invention sur des enzymes du métabolisme phénolique telles que la phénylalanine ammonialyase (PAL), la catéchol O-méthyl transférase (OMT), l'hydroxycinnamate : CoA ligase (HCl) et la cinnamoyl : CoA réductase (CCR), et des enzymes végétales à zinc, telles que l'éthanol déshydrogénase (EDH), la superoxyde dismutase (SOD) et l'anhydrase carbonique (CA).

[3] = test system: éthanol déshydrogénase (EDH); assay: action on plant zinc enzyme EDH
Excerpt: as §1, §2

[4] = molecular target: T2, CAD (Populus deltoides, UniProt P31657); assay: reversibility of CAD inhibition by dialysis of the enzyme-inhibitor mixture; settings: 2 mM; dialysis against tampon tris/HCl 0,1 M, pH 7,5, 14 heures, 4°C
T2 construct: from tissue
T2 sequence (P31657 1-357): T1 sequence (P31657 1-357)
Excerpt: L'étude des modalités d'action des inhibiteurs de l'invention montre la réversibilité de leur action.

[5] = test system: cinnamoyl : CoA réductase (CCR); assay: action on phenolic metabolism enzyme CCR
Excerpt: as §1, §2

[6] = test system: phénylalanine ammonialyase (PAL); assay: action on phenolic metabolism enzyme PAL
Excerpt: as §1, §2

[7] = molecular target: T1, CAD de peuplier; assay: in vitro inhibition of isolated poplar CAD; settings: 0,250mM; sens physiologique, réduction de l'aldéhyde coniférylique, 340 nm, pH 6,5; read-out: inhibition à 0,250mM
[8] = test system: superoxyde dismutase (SOD); assay: action on plant zinc enzyme SOD
Excerpt: as §1, §2

[9] = 2mM, not among the results measured in the physiological direction, read-out: Inhibition % à 2mM

COc1cc(C=CC(=O)OC(C)(C)C)cc(OC)c1O [STB, Sinapate de tertiobutyle]
inhibition at 2000 µM [1, 9]: 55%

COc1cc(C=CC(=O)OC(C)(C)C)ccc1O [FTB, férulate de tertiobutyle]
action sur l'AC [2]: n'agit pas | inhibition at 2000 µM [1, 9]: 75% | inhibition at 2000 µM ([1]; text restatement of the table value (2mM), read-out: taux d'inhibition): ~75% | action sur l'EDH [3]: n'agit pas | activité de CAD après dialyse [4]: restitution totale de l'activité CAD | action vis à vis de la CCR [5]: actif | action vis à vis de la PAL [6]: actif | inhibition at 250 µM [7]: 100% | action sur la SOD [8]: n'agit pas

COc1cc(C=CC(=O)N2CCSC2=S)ccc1O [FMT]
inhibition at 250 µM [7]: 100%

CC(C)(C)OC(=O)C=Cc1ccc(O)cc1 [PCB, p-Coumarate de tertiobutyle]
inhibition at 2000 µM [1, 9]: 40%

Reference: patent publication EP0155871A1, “Compounds possessing inhibiting properties in the lignin formation in plants and process for the reduction of their lignin content” (Etablissement Public dit: CENTRE NATIONAL DE LA RECHERCHE …, priority 1984, dated 1985)
